Measurements reported in PubChem BioAssay AID1845213 (Molecular Pharmacology Branch, DTP, NCI, 2023).
pIC50: −log10 of the molar value. Several values for one entry are separate records, joined by “and”; a condition that tells them apart may be missing. Equal values may be shown once. Activity calls are given as the source filed them. How the source made its calls: active means viability on the fitted dose curve at most 10% of control; inactive means the rest.

Tested on: NCI-H841 complex tumor spheroid viability
Assay: Anticancer human tumor NCI-H841 cell line growth inhibition;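 on pIC50: spheroids exposed to compounds for 7 days before readout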;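 on viability, T/C: spheroids exposed to compounds for 7 days before readout; 100% = DMSO vehicle control wells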
Conditions: for viability, T/C: stronger effect = lower value
How it was run: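 Complex tumor spheroids combined malignant cells with endothelial cells and mesenchymal stem cells. DNA-damaging drugs and DNA repair inhibitors were tested alone and in combination, at half-log dilutions down from clinical Cmax (top 10 microM if Cmax unknown), 0.25% DMSO final.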

[1] = curve of first compound, second compound 30 pM
[2] = curve of first compound, second compound 94.9 pM
[3] = curve of first compound, second compound 0.0003 µM
[4] = curve of first compound, second compound 0.000949 µM
[5] = curve of first compound, second compound 0.003 µM
[6] = second compound 30 pM, first compound 0.0316 µM
[7] = second compound 30 pM, first compound 0.1 µM
[8] = second compound 30 pM, first compound 0.316 µM
[9] = second compound 30 pM, first compound 1 µM
[10] = second compound 30 pM, first compound 3.16 µM
[11] = second compound 30 pM, first compound 10 µM
[12] = second compound 94.9 pM, first compound 0.0316 µM
[13] = second compound 94.9 pM, first compound 0.1 µM
[14] = second compound 94.9 pM, first compound 0.316 µM
[15] = second compound 94.9 pM, first compound 1 µM
[16] = second compound 94.9 pM, first compound 3.16 µM
[17] = second compound 94.9 pM, first compound 10 µM
[18] = second compound 0.0003 µM, first compound 0.0316 µM
[19] = second compound 0.0003 µM, first compound 0.1 µM
[20] = second compound 0.0003 µM, first compound 0.316 µM
[21] = second compound 0.0003 µM, first compound 1 µM
[22] = second compound 0.0003 µM, first compound 3.16 µM
[23] = second compound 0.0003 µM, first compound 10 µM
[24] = second compound 0.000949 µM, first compound 0.0316 µM
[25] = second compound 0.000949 µM, first compound 0.1 µM
[26] = second compound 0.000949 µM, first compound 0.316 µM
[27] = second compound 0.000949 µM, first compound 1 µM
[28] = second compound 0.000949 µM, first compound 3.16 µM
[29] = second compound 0.000949 µM, first compound 10 µM
[30] = second compound 0.003 µM, first compound 0.0316 µM
[31] = second compound 0.003 µM, first compound 0.1 µM
[32] = second compound 0.003 µM, first compound 0.316 µM
[33] = second compound 0.003 µM, first compound 1 µM
[34] = second compound 0.003 µM, first compound 3.16 µM
[35] = second compound 0.003 µM, first compound 10 µM

## [2H]c1nc(C)nc([2H])c1-c1cc(NC[C@@H](C)c2cccc3c(C(=O)NC)ccnc23)ncn1 + COc1cc2c(cc1O)CCNC21CSC2c3c(OC(C)=O)c(C)c4c(c3C(COC1=O)N1C(O)C3Cc5cc(C)c(OC)c(O)c5C(C21)N3C)OCO4
[1]
  pIC50: < 5.00
[2]
  pIC50: < 5.00
[3]
  pIC50: > 7.50
[4]
  pIC50: > 7.50
[5]
  pIC50: > 7.50
[6]
  viability, T/C: 98.7%
[7]
  viability, T/C: 101%
[8]
  viability, T/C: 102%
[9]
  viability, T/C: 99.4%
[10]
  viability, T/C: 97.2%
[11]
  viability, T/C: 96.2%
[12]
  viability, T/C: 101%
[13]
  viability, T/C: 102%
[14]
  viability, T/C: 98%
[15]
  viability, T/C: 96.9%
[16]
  viability, T/C: 96.9%
[17]
  viability, T/C: 93%
[18]
  viability, T/C: 40%
[19]
  viability, T/C: 47.3%
[20]
  viability, T/C: 38.3%
[21]
  viability, T/C: 34.7%
[22]
  viability, T/C: 39.7%
[23]
  viability, T/C: 20.1%
[24]
  viability, T/C: 3.9%
[25]
  viability, T/C: 2.99%
[26]
  viability, T/C: 3.31%
[27]
  viability, T/C: 3.19%
[28]
  viability, T/C: 3.35%
[29]
  viability, T/C: 3.46%
[30]
  viability, T/C: 0.12%
[31]
  viability, T/C: 0.1%
[32]
  viability, T/C: 0.1%
[33]
  viability, T/C: 0.1%
[34]
  viability, T/C: 0.12%
[35]
  viability, T/C: 0.17%

## Cc1sc2c(c1C)C(c1ccc(Cl)cc1)=NC(CC(=O)Nc1ccc(O)cc1)c1nnc(C)n1-2 (stereo not given) + COc1cc2c(cc1O)CCNC21CSC2c3c(OC(C)=O)c(C)c4c(c3C(COC1=O)N1C(O)C3Cc5cc(C)c(OC)c(O)c5C(C21)N3C)OCO4
[1]
  pIC50: 6.29
[2]
  pIC50: 6.54
[3]
  pIC50: > 8.02
[4]
  pIC50: > 8.02
[5]
  pIC50: > 8.02
Second compound 30 pM, first compound 0.00949 µM
  viability, T/C: 101%
Second compound 30 pM, first compound 0.03 µM
  viability, T/C: 99.2%
Second compound 30 pM, first compound 0.0949 µM
  viability, T/C: 93.3%
Second compound 30 pM, first compound 0.3 µM
  viability, T/C: 69.2%
Second compound 30 pM, first compound 0.949 µM
  viability, T/C: 28.3%
Second compound 30 pM, first compound 3 µM
  viability, T/C: 5.97%
Second compound 94.9 pM, first compound 0.00949 µM
  viability, T/C: 99.5%
Second compound 94.9 pM, first compound 0.03 µM
  viability, T/C: 91.6%
Second compound 94.9 pM, first compound 0.0949 µM
  viability, T/C: 74.9%
Second compound 94.9 pM, first compound 0.3 µM
  viability, T/C: 53.9%
Second compound 94.9 pM, first compound 0.949 µM
  viability, T/C: 14.4%
Second compound 94.9 pM, first compound 3 µM
  viability, T/C: 2.65%
Second compound 0.0003 µM, first compound 0.00949 µM
  viability, T/C: 37.6%
Second compound 0.0003 µM, first compound 0.03 µM
  viability, T/C: 20.6%
Second compound 0.0003 µM, first compound 0.0949 µM
  viability, T/C: 15.6%
Second compound 0.0003 µM, first compound 0.3 µM
  viability, T/C: 5.26%
Second compound 0.0003 µM, first compound 0.949 µM
  viability, T/C: 2.59%
Second compound 0.0003 µM, first compound 3 µM
  viability, T/C: 1.68%
Second compound 0.000949 µM, first compound 0.00949 µM
  viability, T/C: 2.84%
Second compound 0.000949 µM, first compound 0.03 µM
  viability, T/C: 2.9%
Second compound 0.000949 µM, first compound 0.0949 µM
  viability, T/C: 2.06%
Second compound 0.000949 µM, first compound 0.3 µM
  viability, T/C: 0.99%
Second compound 0.000949 µM, first compound 0.949 µM
  viability, T/C: 0.03%
Second compound 0.000949 µM, first compound 3 µM
  viability, T/C: 0.1%
Second compound 0.003 µM, first compound 0.00949 µM
  viability, T/C: 0.12%
Second compound 0.003 µM, first compound 0.03 µM
  viability, T/C: 0.12%
Second compound 0.003 µM, first compound 0.0949 µM
  viability, T/C: 0.12%
Second compound 0.003 µM, first compound 0.3 µM
  viability, T/C: 0.1%
Second compound 0.003 µM, first compound 0.949 µM
  viability, T/C: 0.12%
Second compound 0.003 µM, first compound 3 µM
  viability, T/C: 0.2%

## COc1cc(C)[nH]c(=O)c1CN1CCc2c(Cl)cc(C(OC)C3COC3)c(Cl)c2C1=O (stereo not given)
Compound 0.0316 µM
  viability, T/C: 91% and 78.5% and 86.2%
Compound 0.1 µM
  outcome: inactive
  viability, T/C: 73.6% and 74.6%
Compound 0.316 µM
  outcome: inactive
  viability, T/C: 73.2% and 67.7%
Compound 1 µM
  viability, T/C: 65% and 42.6% and 61.8%
Compound 3.16 µM
  viability, T/C: 60.1% and 38.4% and 55.5%
Compound 10 µM
  viability, T/C: 54.7% and 35.1% and 51.2%

## Cc1cc(C)c(CNC(=O)c2cc(-c3ccc(CN4CCOCC4)cc3)cc3c2cnn3C2CCCC2)c(=O)[nH]1 + COc1cc2c(cc1O)CCNC21CSC2c3c(OC(C)=O)c(C)c4c(c3C(COC1=O)N1C(O)C3Cc5cc(C)c(OC)c(O)c5C(C21)N3C)OCO4
[1]
  pIC50: < 5.00
[2]
  pIC50: < 5.00
[3]
  pIC50: > 7.50
[4]
  pIC50: > 7.50
[5]
  pIC50: > 7.50
[6]
  viability, T/C: 99.7%
[7]
  viability, T/C: 102%
[8]
  viability, T/C: 104%
[9]
  viability, T/C: 95.4%
[10]
  viability, T/C: 87%
[11]
  viability, T/C: 65%
[12]
  viability, T/C: 99.5%
[13]
  viability, T/C: 99.7%
[14]
  viability, T/C: 97%
[15]
  viability, T/C: 89.5%
[16]
  viability, T/C: 84.7%
[17]
  viability, T/C: 57%
[18]
  viability, T/C: 38.6%
[19]
  viability, T/C: 44%
[20]
  viability, T/C: 46.7%
[21]
  viability, T/C: 32.2%
[22]
  viability, T/C: 25.2%
[23]
  viability, T/C: 7.36%
[24]
  viability, T/C: 2.45%
[25]
  viability, T/C: 2.86%
[26]
  viability, T/C: 3.65%
[27]
  viability, T/C: 2.33%
[28]
  viability, T/C: 2.54%
[29]
  viability, T/C: 1.15%
[30]
  viability, T/C: 0.26%
[31]
  viability, T/C: 0.12%
[32]
  viability, T/C: 0.11%
[33]
  viability, T/C: 0.11%
[34]
  viability, T/C: 0.13%
[35]
  viability, T/C: 0.19%

## Cc1cc(C)c(CNC(=O)c2cc(-c3ccc(CN4CCOCC4)cc3)cc3c2cnn3C2CCCC2)c(=O)[nH]1
Compound 0.0316 µM
  viability, T/C: 101% and 99.7% and 102%
Compound 0.1 µM
  viability, T/C: 103% and 98.5% and 102%
Compound 0.316 µM
  viability, T/C: 99.7% and 106% and 98.5%
Compound 1 µM
  viability, T/C: 99.8% and 93.7% and 97.1%
Compound 3.16 µM
  viability, T/C: 87.3% and 84.7% and 80.8%
Compound 10 µM
  viability, T/C: 65.2% and 43.9% and 50.7%
Curve of compound
  pIC50: < 5.00 and 5.07

## CC1COCCN1c1cc(-c2ccnn2C)c2ccnc(-c3ccn[nH]3)c2n1 (stereo not given) + CC[C@@]1(O)C(=O)OCc2c1cc1n(c2=O)Cc2cc3c(CN(C)C)c(O)ccc3nc2-1
[5]
  pIC50: > 7.50
Curve of first compound, second compound 0.00949 µM
  pIC50: > 7.50
Curve of first compound, second compound 0.03 µM
  pIC50: > 7.50
Curve of first compound, second compound 0.0949 µM
  pIC50: > 7.50
Curve of first compound, second compound 0.3 µM
  pIC50: > 7.50
[30]
  viability, T/C: 8.47%
[31]
  viability, T/C: 2.38%
[32]
  viability, T/C: 1.1%
[33]
  viability, T/C: 1.26%
[34]
  viability, T/C: 1.27%
[35]
  viability, T/C: 1.76%
Second compound 0.00949 µM, first compound 0.0316 µM
  viability, T/C: 1.08%
Second compound 0.00949 µM, first compound 0.1 µM
  viability, T/C: 0.71%
Second compound 0.00949 µM, first compound 0.316 µM
  viability, T/C: 0.73%
Second compound 0.00949 µM, first compound 1 µM
  viability, T/C: 0.86%
Second compound 0.00949 µM, first compound 3.16 µM
  viability, T/C: 1.2%
Second compound 0.00949 µM, first compound 10 µM
  viability, T/C: 1.56%
Second compound 0.03 µM, first compound 0.0316 µM
  viability, T/C: 0.77%
Second compound 0.03 µM, first compound 0.1 µM
  viability, T/C: 0.57%
Second compound 0.03 µM, first compound 0.316 µM
  viability, T/C: 0.65%
Second compound 0.03 µM, first compound 1 µM
  viability, T/C: 0.82%
Second compound 0.03 µM, first compound 3.16 µM
  viability, T/C: 1.08%
Second compound 0.03 µM, first compound 10 µM
  viability, T/C: 1.32%
Second compound 0.0949 µM, first compound 0.0316 µM
  viability, T/C: 0.39%
Second compound 0.0949 µM, first compound 0.1 µM
  viability, T/C: 0.37%
Second compound 0.0949 µM, first compound 0.316 µM
  viability, T/C: 0.5%
Second compound 0.0949 µM, first compound 1 µM
  viability, T/C: 0.56%
Second compound 0.0949 µM, first compound 3.16 µM
  viability, T/C: 0.78%
Second compound 0.0949 µM, first compound 10 µM
  viability, T/C: 1.13%
Second compound 0.3 µM, first compound 0.0316 µM
  viability, T/C: 0.42%
Second compound 0.3 µM, first compound 0.1 µM
  viability, T/C: 0.41%
Second compound 0.3 µM, first compound 0.316 µM
  viability, T/C: 0.4%
Second compound 0.3 µM, first compound 1 µM
  viability, T/C: 0.5%
Second compound 0.3 µM, first compound 3.16 µM
  viability, T/C: 0.54%
Second compound 0.3 µM, first compound 10 µM
  viability, T/C: 0.72%
